How the values were obtained:
Assay type in all cases: binding
[1] = molecular target: T1, kinases (KINOMEscan panel) (Homo sapiens, UniProt O15075); settings: NEW KINOMEscan
T1 sequence (O15075 1-740): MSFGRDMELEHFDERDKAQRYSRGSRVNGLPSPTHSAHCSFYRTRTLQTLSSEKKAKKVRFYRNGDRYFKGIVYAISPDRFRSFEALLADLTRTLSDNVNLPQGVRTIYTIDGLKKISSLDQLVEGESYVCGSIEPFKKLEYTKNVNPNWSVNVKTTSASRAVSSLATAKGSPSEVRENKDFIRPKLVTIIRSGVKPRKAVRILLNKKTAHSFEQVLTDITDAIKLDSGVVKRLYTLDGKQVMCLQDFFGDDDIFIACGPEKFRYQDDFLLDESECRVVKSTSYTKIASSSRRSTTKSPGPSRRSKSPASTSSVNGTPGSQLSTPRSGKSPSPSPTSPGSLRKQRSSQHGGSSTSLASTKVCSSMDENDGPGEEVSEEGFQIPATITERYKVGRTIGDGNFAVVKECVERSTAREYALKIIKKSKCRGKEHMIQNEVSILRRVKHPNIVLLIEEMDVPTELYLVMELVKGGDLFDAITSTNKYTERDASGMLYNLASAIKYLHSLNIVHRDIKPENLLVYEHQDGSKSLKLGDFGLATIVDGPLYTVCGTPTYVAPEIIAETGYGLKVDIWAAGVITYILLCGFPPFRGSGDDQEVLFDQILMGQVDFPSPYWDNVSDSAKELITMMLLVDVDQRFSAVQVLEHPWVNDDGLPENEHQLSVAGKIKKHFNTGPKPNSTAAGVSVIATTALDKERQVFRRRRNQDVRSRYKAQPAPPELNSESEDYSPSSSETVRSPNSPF

[2] = molecular target: kinases (KINOMEscan panel) (Homo sapiens, UniProt O95819); settings: MAP4K4; NEW KINOMEscan
[3] = molecular target: kinases (KINOMEscan panel) (Homo sapiens, UniProt P00533); settings: kinase EGFR; NEW KINOMEscan
[4] = molecular target: kinases (KINOMEscan panel) (Homo sapiens, UniProt P10721, A829P); settings: NEW KINOMEscan
[5] = molecular target: kinases (KINOMEscan panel) (Homo sapiens, UniProt P10721, D816V); settings: kinase KIT(D816V); NEW KINOMEscan
[6] = molecular target: kinases (KINOMEscan panel) (Homo sapiens, UniProt P11309); settings: NEW KINOMEscan
[7] = molecular target: T2, kinases (KINOMEscan panel) (Homo sapiens, UniProt P51813); settings: BMX; NEW KINOMEscan
T2 sequence (P51813 1-675): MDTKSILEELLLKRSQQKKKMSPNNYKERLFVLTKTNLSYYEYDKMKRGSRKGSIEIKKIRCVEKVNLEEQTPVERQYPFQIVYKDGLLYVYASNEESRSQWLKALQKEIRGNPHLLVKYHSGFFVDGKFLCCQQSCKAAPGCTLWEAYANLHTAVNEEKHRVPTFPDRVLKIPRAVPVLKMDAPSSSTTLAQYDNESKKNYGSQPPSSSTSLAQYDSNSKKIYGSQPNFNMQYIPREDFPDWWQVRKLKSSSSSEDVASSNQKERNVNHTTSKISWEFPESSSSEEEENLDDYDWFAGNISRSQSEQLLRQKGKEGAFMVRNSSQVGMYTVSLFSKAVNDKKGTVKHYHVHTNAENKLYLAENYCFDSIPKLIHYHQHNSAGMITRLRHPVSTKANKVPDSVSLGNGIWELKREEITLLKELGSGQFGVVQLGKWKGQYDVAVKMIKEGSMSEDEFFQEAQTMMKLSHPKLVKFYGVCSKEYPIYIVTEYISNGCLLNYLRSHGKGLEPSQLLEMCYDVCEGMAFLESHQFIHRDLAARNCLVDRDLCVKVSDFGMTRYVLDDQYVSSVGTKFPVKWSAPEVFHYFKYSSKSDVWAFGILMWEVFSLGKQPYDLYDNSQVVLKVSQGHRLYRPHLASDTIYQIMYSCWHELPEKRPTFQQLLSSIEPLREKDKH

[8] = molecular target: kinases (KINOMEscan panel) (Homo sapiens, UniProt Q00532); settings: CDKL1; NEW KINOMEscan
[9] = molecular target: kinases (KINOMEscan panel) (Homo sapiens, UniProt Q15759)
[10] = molecular target: kinases (KINOMEscan panel) (Homo sapiens, UniProt Q16513); settings: kinase PKN2; NEW KINOMEscan
[11] = molecular target: kinases (KINOMEscan panel) (Homo sapiens, UniProt Q96Q40)
[12] = molecular target: T3, kinases (KINOMEscan panel) (Homo sapiens, UniProt Q9Y2U5); settings: MAP3K2; NEW KINOMEscan
T3 sequence (Q9Y2U5 1-619): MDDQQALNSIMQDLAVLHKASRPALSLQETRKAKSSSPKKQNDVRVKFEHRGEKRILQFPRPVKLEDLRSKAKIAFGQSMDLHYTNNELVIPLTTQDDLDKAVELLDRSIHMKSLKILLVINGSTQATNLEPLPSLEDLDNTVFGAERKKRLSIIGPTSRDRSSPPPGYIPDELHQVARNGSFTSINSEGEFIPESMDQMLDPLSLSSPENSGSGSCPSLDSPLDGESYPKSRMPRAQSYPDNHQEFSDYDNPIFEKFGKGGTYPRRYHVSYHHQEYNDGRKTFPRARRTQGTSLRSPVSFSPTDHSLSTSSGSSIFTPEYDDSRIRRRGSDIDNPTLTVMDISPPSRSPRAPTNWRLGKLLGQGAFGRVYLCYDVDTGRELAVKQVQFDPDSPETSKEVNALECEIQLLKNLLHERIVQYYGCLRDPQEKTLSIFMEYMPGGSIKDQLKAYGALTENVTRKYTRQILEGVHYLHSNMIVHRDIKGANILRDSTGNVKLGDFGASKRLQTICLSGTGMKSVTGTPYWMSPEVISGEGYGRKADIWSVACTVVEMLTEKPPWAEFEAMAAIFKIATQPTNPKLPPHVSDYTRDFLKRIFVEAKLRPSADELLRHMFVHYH

kinases (KINOMEscan panel) (Homo sapiens, UniProt P11309), sequence (P11309 whole entry): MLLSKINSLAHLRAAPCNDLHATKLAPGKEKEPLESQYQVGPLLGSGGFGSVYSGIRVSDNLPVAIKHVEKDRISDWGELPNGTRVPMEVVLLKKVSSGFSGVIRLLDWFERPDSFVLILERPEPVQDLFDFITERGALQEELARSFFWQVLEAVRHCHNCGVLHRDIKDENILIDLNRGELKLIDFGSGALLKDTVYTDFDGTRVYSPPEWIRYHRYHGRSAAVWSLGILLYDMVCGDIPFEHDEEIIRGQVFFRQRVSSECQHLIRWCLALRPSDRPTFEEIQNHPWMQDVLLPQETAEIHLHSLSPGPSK
kinases (KINOMEscan panel) (Homo sapiens, UniProt P00533), sequence (P00533 25-1210): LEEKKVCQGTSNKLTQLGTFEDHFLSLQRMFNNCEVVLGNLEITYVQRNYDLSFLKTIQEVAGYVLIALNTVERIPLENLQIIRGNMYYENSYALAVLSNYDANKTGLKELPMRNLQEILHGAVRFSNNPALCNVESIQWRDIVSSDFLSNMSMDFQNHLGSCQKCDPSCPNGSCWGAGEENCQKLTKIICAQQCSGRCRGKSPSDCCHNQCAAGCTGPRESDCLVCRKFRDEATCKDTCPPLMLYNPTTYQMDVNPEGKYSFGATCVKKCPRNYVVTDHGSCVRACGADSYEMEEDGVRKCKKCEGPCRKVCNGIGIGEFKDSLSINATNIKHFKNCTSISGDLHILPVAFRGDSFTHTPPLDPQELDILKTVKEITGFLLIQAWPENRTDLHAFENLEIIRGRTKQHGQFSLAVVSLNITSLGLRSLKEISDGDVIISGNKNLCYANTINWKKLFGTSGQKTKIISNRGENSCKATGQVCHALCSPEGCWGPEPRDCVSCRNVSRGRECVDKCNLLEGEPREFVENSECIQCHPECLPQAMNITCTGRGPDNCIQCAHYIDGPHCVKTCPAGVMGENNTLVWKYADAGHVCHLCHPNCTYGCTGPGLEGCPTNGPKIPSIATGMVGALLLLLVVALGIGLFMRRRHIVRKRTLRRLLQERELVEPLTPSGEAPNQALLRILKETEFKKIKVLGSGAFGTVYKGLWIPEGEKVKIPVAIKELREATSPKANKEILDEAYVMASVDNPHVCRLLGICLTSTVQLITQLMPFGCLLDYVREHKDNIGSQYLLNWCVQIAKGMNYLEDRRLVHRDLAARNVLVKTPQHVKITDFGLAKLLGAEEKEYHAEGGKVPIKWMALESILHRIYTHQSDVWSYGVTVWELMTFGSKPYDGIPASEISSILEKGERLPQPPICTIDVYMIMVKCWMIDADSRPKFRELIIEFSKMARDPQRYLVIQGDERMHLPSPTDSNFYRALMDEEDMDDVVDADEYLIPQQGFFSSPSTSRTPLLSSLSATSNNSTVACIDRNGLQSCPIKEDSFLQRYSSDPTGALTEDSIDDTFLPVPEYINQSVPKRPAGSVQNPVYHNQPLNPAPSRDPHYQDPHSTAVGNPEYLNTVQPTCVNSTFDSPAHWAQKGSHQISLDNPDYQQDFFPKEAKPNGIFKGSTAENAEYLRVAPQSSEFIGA
kinases (KINOMEscan panel) (Homo sapiens, UniProt Q00532), sequence (Q00532 whole entry): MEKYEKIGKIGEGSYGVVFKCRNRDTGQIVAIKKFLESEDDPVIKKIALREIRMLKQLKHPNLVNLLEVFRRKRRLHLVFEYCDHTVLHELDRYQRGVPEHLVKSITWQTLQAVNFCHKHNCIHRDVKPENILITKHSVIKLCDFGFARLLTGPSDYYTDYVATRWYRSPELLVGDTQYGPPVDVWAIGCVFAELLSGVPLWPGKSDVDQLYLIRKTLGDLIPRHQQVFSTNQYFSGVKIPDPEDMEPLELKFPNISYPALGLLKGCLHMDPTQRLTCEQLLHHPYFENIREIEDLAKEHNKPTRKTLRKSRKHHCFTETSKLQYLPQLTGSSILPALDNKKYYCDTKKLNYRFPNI
kinases (KINOMEscan panel) (Homo sapiens, UniProt P10721, A829P), sequence (P10721 26-976 A829P): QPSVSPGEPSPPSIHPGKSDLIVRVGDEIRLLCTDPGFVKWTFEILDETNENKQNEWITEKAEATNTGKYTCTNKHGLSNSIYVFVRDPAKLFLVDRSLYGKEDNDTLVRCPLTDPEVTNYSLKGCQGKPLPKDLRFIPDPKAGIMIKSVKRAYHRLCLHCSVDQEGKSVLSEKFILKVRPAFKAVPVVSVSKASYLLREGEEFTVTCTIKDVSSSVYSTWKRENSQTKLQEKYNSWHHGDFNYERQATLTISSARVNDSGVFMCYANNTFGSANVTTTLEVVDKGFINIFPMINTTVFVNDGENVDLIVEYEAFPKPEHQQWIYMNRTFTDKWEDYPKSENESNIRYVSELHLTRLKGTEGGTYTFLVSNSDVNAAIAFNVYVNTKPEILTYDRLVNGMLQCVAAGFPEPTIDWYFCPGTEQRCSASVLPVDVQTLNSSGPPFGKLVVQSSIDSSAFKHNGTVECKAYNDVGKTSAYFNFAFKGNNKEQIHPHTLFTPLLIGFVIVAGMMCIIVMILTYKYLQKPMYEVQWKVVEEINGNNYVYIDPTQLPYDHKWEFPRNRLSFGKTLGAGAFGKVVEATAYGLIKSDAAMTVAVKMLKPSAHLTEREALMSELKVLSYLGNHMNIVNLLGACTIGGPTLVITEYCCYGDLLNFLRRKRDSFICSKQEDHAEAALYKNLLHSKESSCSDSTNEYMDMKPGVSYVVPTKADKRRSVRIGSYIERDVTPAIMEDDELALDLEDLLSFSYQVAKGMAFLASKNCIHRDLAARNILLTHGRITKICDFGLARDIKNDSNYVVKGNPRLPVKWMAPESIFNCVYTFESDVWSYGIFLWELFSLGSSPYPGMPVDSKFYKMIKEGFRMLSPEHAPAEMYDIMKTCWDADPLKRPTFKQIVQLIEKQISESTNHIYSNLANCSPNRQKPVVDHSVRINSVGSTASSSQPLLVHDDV
kinases (KINOMEscan panel) (Homo sapiens, UniProt Q15759), sequence (Q15759 whole entry): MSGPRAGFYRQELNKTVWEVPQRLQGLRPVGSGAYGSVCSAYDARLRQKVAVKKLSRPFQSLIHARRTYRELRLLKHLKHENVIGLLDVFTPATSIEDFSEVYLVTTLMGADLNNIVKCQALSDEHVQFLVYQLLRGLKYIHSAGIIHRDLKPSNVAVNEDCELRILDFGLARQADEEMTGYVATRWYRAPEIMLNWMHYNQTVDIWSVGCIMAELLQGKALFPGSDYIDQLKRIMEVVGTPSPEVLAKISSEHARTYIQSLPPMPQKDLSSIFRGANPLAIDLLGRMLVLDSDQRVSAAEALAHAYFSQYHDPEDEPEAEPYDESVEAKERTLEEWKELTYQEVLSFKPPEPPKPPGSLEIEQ
kinases (KINOMEscan panel) (Homo sapiens, UniProt Q16513), sequence (Q16513 whole entry): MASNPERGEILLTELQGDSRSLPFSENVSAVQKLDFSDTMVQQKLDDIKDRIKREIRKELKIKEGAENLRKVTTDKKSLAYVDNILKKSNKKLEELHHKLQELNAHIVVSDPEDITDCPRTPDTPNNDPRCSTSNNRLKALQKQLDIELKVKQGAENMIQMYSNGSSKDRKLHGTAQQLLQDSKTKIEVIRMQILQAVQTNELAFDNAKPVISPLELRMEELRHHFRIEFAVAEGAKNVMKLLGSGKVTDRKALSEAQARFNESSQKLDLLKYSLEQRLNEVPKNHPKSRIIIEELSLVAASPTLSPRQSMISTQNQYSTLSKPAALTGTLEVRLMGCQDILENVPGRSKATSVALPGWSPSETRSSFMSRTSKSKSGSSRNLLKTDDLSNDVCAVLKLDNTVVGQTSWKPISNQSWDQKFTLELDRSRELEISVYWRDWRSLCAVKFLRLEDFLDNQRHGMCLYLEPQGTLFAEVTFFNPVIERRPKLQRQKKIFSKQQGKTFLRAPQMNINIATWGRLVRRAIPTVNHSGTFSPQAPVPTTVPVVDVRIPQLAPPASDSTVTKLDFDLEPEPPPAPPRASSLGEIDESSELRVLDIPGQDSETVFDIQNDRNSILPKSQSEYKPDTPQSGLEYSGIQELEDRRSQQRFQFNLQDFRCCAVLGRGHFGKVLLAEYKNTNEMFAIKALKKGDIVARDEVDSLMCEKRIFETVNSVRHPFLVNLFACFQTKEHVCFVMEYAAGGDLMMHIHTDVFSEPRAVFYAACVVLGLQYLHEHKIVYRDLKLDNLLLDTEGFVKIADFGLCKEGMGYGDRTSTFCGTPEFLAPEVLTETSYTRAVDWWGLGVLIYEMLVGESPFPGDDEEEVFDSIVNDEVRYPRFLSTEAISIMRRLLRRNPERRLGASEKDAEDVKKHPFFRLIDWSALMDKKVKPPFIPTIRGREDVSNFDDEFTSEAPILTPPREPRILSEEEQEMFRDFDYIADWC
kinases (KINOMEscan panel) (Homo sapiens, UniProt P10721, D816V), sequence (P10721 26-976 D816V): as the sequence (P10721 26-976 A829P) above, with D791V, P804A counted along it
kinases (KINOMEscan panel) (Homo sapiens, UniProt Q96Q40), sequence (Q96Q40 whole entry): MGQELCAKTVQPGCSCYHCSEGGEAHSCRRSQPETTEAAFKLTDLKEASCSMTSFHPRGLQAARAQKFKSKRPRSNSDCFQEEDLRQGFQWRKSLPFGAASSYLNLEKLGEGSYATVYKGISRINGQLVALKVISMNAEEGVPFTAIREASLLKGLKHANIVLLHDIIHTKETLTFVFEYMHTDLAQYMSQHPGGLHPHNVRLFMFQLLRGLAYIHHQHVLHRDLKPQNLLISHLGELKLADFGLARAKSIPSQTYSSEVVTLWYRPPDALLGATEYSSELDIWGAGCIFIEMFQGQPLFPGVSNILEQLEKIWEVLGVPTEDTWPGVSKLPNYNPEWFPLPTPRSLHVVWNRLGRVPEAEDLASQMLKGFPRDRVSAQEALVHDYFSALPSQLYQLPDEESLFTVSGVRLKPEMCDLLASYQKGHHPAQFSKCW

Cc1cccc(-c2nc(Nc3ccc4nn(C)cc4c3)c3ccccc3n2)n1 [NK167]
KINOMEscan DCLK1 [1]: 49 | KINOMEscan MAP4K4 [2]: 1 | KINOMEscan EGFR [3]: 0 | KINOMEscan KIT(A829P) [4]: 0 | KINOMEscan KIT(D816V) [5]: 0 | KINOMEscan PIM1 [6]: 2 | KINOMEscan BMX [7]: 0 | KINOMEscan CDKL1 [8]: 44 | KINOMEscan MAPK11/p38-beta [9]: 12 | KINOMEscan PKN2 [10]: 0 | KINOMEscan CDK15/PFTAIRE2 [11]: 0 | KINOMEscan MAP3K2 [12]: 0

Cc1cccc(-c2nc(N(C)c3ccc4ncsc4c3)c3ccccc3n2)n1 [NK-161]
KINOMEscan DCLK1 [1]: 36 | KINOMEscan MAP4K4 [2]: 0 | KINOMEscan EGFR [3]: 1 | KINOMEscan KIT(A829P) [4]: 19 | KINOMEscan KIT(D816V) [5]: 7 | KINOMEscan PIM1 [6]: 29 | KINOMEscan BMX [7]: 6 | KINOMEscan CDKL1 [8]: 36 | KINOMEscan MAPK11/p38-beta [9]: 1 | KINOMEscan PKN2 [10]: 0 | KINOMEscan CDK15/PFTAIRE2 [11]: 0 | KINOMEscan MAP3K2 [12]: 0
